The numbers were not newly measured in patent publication US20130303466A1, “Chemosensory Receptor Ligand-Based Therapies” (ELCELYX THERAPEUTICS, INC., priority 2010, published 2013), which cites them from elsewhere.

The data set concerns the target T1, sweet receptor (Homo sapiens, UniProt Q7RTX0+Q8TE23).
T1 sequence (Q8TE23 20-839): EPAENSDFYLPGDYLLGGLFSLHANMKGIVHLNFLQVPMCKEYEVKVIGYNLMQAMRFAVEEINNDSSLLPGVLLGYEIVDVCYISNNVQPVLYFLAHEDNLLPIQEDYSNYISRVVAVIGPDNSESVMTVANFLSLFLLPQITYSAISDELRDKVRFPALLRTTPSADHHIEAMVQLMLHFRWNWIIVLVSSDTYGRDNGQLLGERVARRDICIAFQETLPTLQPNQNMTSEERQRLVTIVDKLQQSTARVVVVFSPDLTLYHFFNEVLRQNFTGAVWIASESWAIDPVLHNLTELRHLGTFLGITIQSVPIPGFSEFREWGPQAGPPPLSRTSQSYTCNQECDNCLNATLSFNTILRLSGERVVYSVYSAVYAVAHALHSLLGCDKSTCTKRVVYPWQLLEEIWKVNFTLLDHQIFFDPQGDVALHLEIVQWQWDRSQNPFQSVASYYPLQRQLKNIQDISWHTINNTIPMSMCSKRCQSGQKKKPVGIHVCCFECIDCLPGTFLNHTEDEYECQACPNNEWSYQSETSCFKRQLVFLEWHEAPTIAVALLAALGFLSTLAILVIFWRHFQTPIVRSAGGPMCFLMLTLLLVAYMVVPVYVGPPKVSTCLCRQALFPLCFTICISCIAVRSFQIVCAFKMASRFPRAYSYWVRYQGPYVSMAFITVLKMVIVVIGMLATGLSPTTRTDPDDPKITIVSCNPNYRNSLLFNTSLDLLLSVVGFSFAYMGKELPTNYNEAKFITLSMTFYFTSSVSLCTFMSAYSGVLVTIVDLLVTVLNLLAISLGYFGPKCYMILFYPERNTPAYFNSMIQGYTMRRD
T1 sequence (Q7RTX0 21-852): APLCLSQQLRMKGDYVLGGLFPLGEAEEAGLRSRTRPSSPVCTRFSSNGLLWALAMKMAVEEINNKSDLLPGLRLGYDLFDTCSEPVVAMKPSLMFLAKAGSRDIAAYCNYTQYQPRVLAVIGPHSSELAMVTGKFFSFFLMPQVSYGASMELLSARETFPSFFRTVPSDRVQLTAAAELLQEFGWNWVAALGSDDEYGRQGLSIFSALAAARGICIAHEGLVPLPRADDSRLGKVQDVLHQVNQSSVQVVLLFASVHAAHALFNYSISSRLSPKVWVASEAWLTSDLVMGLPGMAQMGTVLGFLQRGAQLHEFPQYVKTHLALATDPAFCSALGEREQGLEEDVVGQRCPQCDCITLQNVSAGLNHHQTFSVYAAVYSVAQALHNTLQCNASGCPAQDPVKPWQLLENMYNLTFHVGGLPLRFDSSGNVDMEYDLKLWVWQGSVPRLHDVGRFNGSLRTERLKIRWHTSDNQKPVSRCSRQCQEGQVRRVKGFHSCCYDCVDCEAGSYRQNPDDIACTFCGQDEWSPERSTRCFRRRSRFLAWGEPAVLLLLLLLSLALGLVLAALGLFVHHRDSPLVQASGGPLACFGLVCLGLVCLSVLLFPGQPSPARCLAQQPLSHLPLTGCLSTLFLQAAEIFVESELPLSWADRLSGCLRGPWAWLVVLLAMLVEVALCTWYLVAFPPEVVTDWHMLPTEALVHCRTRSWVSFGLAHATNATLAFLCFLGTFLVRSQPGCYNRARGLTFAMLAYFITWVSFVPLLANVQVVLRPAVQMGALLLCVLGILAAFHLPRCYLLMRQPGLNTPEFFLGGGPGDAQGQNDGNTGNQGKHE
The following applies: relative sweetness on a weight comparison basis to sucrose (= 1.0); ranges: relative sweetness varied with the concentration of sucrose; adapted from Kim et al., 2002.

For the molecule `CC(=O)O[C@H]1C(=O)c2c(O)cc(O)cc2O[C@@H]1c1ccc(O)c(O)c1` [(2R,3R)-Dihydroquercetin 3-O-acetate], the Sweetness/potency is given as 80. For `Oc1ccc([C@H]2Oc3c(c(O)cc4c3[C@H]3c5c(O)cc(O)cc5O[C@@](c5ccc(O)cc5)(O4)[C@@H]3O)[C@H](c3c(O)cc(O)c4c3O[C@H](c3ccc(O)cc3)[C@@H](O)C4)[C@H]2O)cc1` [Selligueain A (96), Selligueain A], the Sweetness/potency is 35. With `COc1c(O)cc2c(c1O)C(=O)[C@H](O)[C@@H](c1ccc(O)c(O)c1)O2` [(2R,3R)-2,3-Dihydro-5,7,3′,4′-tetrahydroxy-6-methoxyflavonol], the Sweetness/potency was 15.

For `CC1(C(=O)O)C=C2C3CCC4C5(CO)CCC(OC6OC(C(=O)O)C(O)C(O)C6OC6OC(C(=O)O)C(O)C(O)C6O)C(C)(C)C5CCC4(C)C3(C)CCC2(C)CC1` (stereo not drawn) [Periandrin III (59), Periandrin III], the Sweetness/potency is given as 92.

Regarding `C=C1C[C@@]23CC[C@H]4[C@@](C)(CCC[C@@]4(C)C(=O)O[C@@H]4O[C@H](CO)[C@@H](O)[C@H](O)[C@H]4O)[C@@H]2CC[C@]1(O[C@@H]1O[C@H](CO)[C@@H](O)[C@H](O)[C@H]1O[C@@H]1O[C@H](CO)[C@@H](O)[C@H](O)[C@H]1O)C3` [Stevioside (5), Stevioside], the Sweetness/potency is 210.

On to `COc1ccc(C2Oc3cc(O)cc(O)c3C(=O)C2OC(C)=O)cc1O` (stereo not drawn) [Dihydroquercetin 3-O-acetate 4′-methyl ether], for which the Sweetness/potency is 400.

Take `Oc1cc2c(cc1O)[C@@H]1c3ccc(O)c(O)c3OC[C@]1(O)C2` [Hematoxylin (99), Hematoxylin]: the Sweetness/potency is given as 120. Periandrin II [Periandrin II (58)]: the Sweetness/potency is 95. Turning to Thaumatin, the Sweetness/potency is listed as 1,600. Consider `CC1=CC[C@@H]([C@@H](C)[C@H]2CC[C@@]3(C)[C@@H]4CC[C@H]5[C@](C)(C(=O)O)[C@@H](O[C@@H]6O[C@H](CO)[C@@H](O)[C@H](O)[C@H]6O[C@@H]6O[C@H](CO)[C@@H](O)[C@H](O)[C@H]6O)CC[C@@]56C[C@@]46CC[C@]23C)OC1=O` [Abrusoside C (44), Abrusoside C], for which the Sweetness/potency was 50. For the molecule `C=C(C)C1CC=C(/C=N/O)CC1` (stereo not drawn) [Perillartine (10), Perillartine], the Sweetness/potency is on record as 370. Regarding `C/C(=C\CC/C(C)=C/CO[C@@H]1O[C@H](CO)[C@@H](O)[C@H](O[C@@H]2O[C@@H](C)[C@H](O)[C@@H](O)[C@H]2O)[C@H]1O[C@@H]1O[C@@H](C)[C@H](O)[C@@H](O)[C@H]1O)CC/C=C(\C)CO[C@@H]1O[C@H](CO)[C@@H](O)[C@H](O[C@@H]2O[C@@H](C)[C@H](O)[C@@H](O)[C@H]2O)[C@H]1O[C@@H]1O[C@@H](C)[C@H](O)[C@@H](O)[C@H]1O` [Mukurozioside IIb (13), Mukurozioside IIb], the Sweetness/potency result is listed as “ca. 1”. For `CC1(C)[C@@H](O[C@@H]2O[C@H](C(=O)O)[C@@H](O)[C@H](O)[C@H]2O[C@@H]2O[C@H](C(=O)O)[C@@H](O)[C@H](O)[C@H]2O)CC[C@]2(C=O)[C@H]3CC[C@@H]4C5=C[C@@](C)(C(=O)O)CC[C@]5(C)CC[C@@]4(C)[C@]3(C)CC[C@@H]12` [Periandrin I (57), Periandrin I], the Sweetness/potency is 90.

For `COc1c(O)cc2c(c1O)C(=O)[C@H](OC(C)=O)[C@@H](c1ccc(O)c(O)c1)O2` [(2R,3R)-2,3-Dihydro-5,7,3′,4′-tetrahydroxy-6-methoxy-3-O-acetylflavonol], the Sweetness/potency is reported as 25.

Regarding “Brazzein: sweet protein from Pentadiplandra brazzeana Baillon (QDKCKKVYENYPVSKCQLANQCNYDCKLDKHARSGECFYDEKRNLQCICDYCEY; UniProt P56552 1-54, looked up)”, the Sweetness/potency is 2,000. On to Baiyunoside [Baiyunoside (30)], for which the Sweetness/potency is on record as 500. Turning to Pentadin, the Sweetness/potency was 500.

On to Monellin, for which the Sweetness/potency is reported as 3,000.

Take “Carnosifloside V [Carnosifloside V (35)]”: the Sweetness/potency is given as 51. As for `C=C(C)C1CCC2(C)C(CC(OC3OCC(O)C(O)C3O)C3C(C(C)(O)C/C=C/C(C)(C)O)CCC32C)C1(C)CCC(=O)O` (stereo not drawn) [Pterocaryoside B (63), Pterocaryoside B], the Sweetness/potency is listed as 100. For the molecule Rebaudioside C [Rebaudioside C (17)], the Sweetness/potency is recorded as 30. On to `C/C(=C\CO)CCC1=C(C=O)CC(OC2OCC(O)C(O)C2O)C2C(C)(CO)CCCC12C` (stereo not drawn) [Gaudichaudioside A (32), Gaudichaudioside A], for which the Sweetness/potency is 55. For the molecule Scandenoside R6 [Scandenoside R6 (39)], the Sweetness/potency is on record as 54. For the molecule `CC[C@@H](C)C(=O)O[C@@H](C)[C@]1(O)CC[C@]2(O)[C@@H]3CC[C@H]4C[C@@H](O[C@@H]5C[C@H](O)[C@H](O[C@H]6C[C@H](OC)[C@H](O[C@H]7C[C@@H](OC)[C@H](O[C@H]8C[C@@H](OC)[C@H](O[C@@H]9O[C@H](C)[C@@H](O[C@@H]%10O[C@H](CO)[C@@H](O)[C@H](O)[C@H]%10O)[C@H](OC)[C@H]9O)[C@@H](C)O8)[C@@H](C)O7)[C@@H](C)O6)[C@@H](C)O5)CC[C@]4(C)[C@H]3C[C@@H](OC(C)=O)[C@]12C` [Telosmoside A15 (74), Telosmoside A15], the Sweetness/potency is on record as 1000. With Polypodoside A [Polypodoside A (65)], the Sweetness/potency is given as 600.

With `CC1=CC[C@@H]([C@@H](C)[C@H]2CC[C@@]3(C)[C@@H]4CC[C@H]5[C@](C)(C(=O)O)[C@@H](O[C@@H]6O[C@H](CO)[C@@H](O)[C@H](O)[C@H]6O[C@@H]6O[C@H](C(=O)O)[C@@H](O)[C@H](O)[C@H]6O)CC[C@@]56C[C@@]46CC[C@]23C)OC1=O` [Abrusoside D (45), Abrusoside D], the Sweetness/potency was 75. Regarding “Pterocaryoside A [Pterocaryoside A (62)]”, the Sweetness/potency was 50.

Take `C[C@@H]1O[C@@H](O[C@H]2O[C@@H]([C@@H](C)C3CC[C@@H]4[C@H]5CC(=O)[C@@H]6C[C@H](O[C@@H]7O[C@H](CO)[C@@H](O)[C@H](O)[C@H]7O[C@@H]7O[C@@H](C)[C@H](O)[C@@H](O)[C@H]7O)CC[C@]6(C)[C@@H]5CC[C@]34C)CC[C@@H]2C)[C@H](O)[C@H](O)[C@H]1O` (stereo partly drawn) [Osladin (64), Osladin]: the Sweetness/potency is on record as 500. For Curculin, the Sweetness/potency is 550. Take `CC(C)=CCC[C@](C)(O)[C@@H]1CCC(C)=CC1=O` [(+)-Hernandulcin (11), (+)-Hernandulcin]: the Sweetness/potency is listed as 1,500. For `C/C=C/c1ccc(OC)cc1` [trans-Anethole(78), trans-Anethole], the Sweetness/potency is 13. Consider `CC1=CC[C@@H]([C@@H](C)[C@H]2CC[C@@]3(C)[C@@H]4CC[C@H]5[C@](C)(C(=O)O)[C@@H](O[C@@H]6O[C@H](CO)[C@@H](O)[C@H](O)[C@H]6O)CC[C@@]56C[C@@]46CC[C@]23C)OC1=O` [Abrusoside A (42), Abrusoside A], for which the Sweetness/potency is on record as 30. Take “Albiziasaponin B [Albiziasaponin B (51)]”: the Sweetness/potency is reported as 600.
